Among the data in patent publication US7855198B2, “Benzamide derivative or salt thereof” (Astellas Pharma Inc., priority 2003, dated 2010) are IC50 and inhibition in vivo values, retold here.

In one assay the target is T1, human VR1 (Homo sapiens, UniProt Q8NER1).
T1 construct: A full-length cDNA encoding human VR1 was obtained by the following method; expressed in transfected cells; membrane preparation
Kind of assay: Receptor binding assay ([3H]RTX) using membranes of VR1 stably expressing cell. The note with it: [3H]RTX binding, VR1/HEK293 membrane preparation. How it is done:
A full-length cDNA encoding human VR1 was obtained by the following method. First, human brain mRNA was reverse transcribed using a reverse transcriptase to synthesize a first strand cDNA. Then, using the first strand cDNA as a template, PCR according to Hot Start method was carried out using Taq DNA polymerase. The above PCR was carried out by first conducting thermal denaturation of 98° C. (1 min) and then repeating a cycle consisting of 98° C. (15 sec)/63° C. (30 sec)/72° C. (3 min) 35 times using an oligonucleotide consisting of a base sequence of 424th to 443rd in a known human VR1 cDNA sequence (Genbank AJ277028.1) as a sense primer and an oligonucleotide consisting of a complimentary sequence of a base sequence of 3082nd to 3100th as an antisense primer.
An amplified DNA fraction was cloned using pCR-XL-TOPO vector (TOPO XL PCR Cloning Kit; Invitrogen, USA). The resulting plasmid DNA was digested with a restriction enzyme EcoRI to isolate human VR1-cDNA alone, which was then integrated into pcDNA3.1(+) plasmid (Invitrogen, USA). The above genetic engineering operations were carried out in accordance with known methods (Sambrook, J. et al, Molecular Cloning—A Laboratory Manual”, Cold Spring Harbor Laboratory Press, NY, 2001) and directions attached to individual reagents.
Next, the resulting pcDNA3.1-VR1 was transduced into HEK293 cells or CHO-KL cells. VR1/HEK293 cells were selected using a DMEM medium (Invitrogen, USA) containing 10% FBS, 100 μg/ml streptomycin, 100 U/ml penicillin, and 400 μg/ml G418 and VR1/CHO cells were selected using a HumF12 medium (Invitrogen, USA) containing 10% FBS, 100 μg/ml streptomycin, 100 U/ml penicillin, and 400 μg/ml G418 to prepare receptor stably expressing cell lines. The receptor stably expressing cells were subcultured in respective above media.
After the above VR1/HEK293 cells were cultured in glass dishes in a large quantity, the medium was removed and cells were scraped up with adding ice-cooled PBS. They were centrifuged at 1,000 rpm at 4° C. for 10 minutes. After a buffer for homogenization (25 mM Tris-HCl, 220 mM sucrose, pH 7.4) was added to the resulting sediment and the whole was homogenized, it was centrifuged at 2,200 rpm at 4° C. for 10 minutes. The resulting supernatant was centrifuged at 30,000×g at 4° C. for 20 minutes and an operation of adding 25 mM Tris-HCl, pH 7.4 to the resulting sediment and centrifuging it at 30,000×g at 4° C. for 20 minutes was repeated twice. The resulting sediment was suspended in 25 mM Tris-HCl, pH 7.4 and protein concentration was determined using a protein assay staining solution (Bio Rad, USA). The membrane preparation thus prepared was stored at −80° C.
The test was carried out by modifying the method of [Neurosci. 57: 747-757 (1993)]. Assay buffer (25 mM Tris-HCl, 0.025% BSA, pH 7.4) (147 μl), 3 μl of a test compound, 50 μl of [^3H]RTX (about 50,000 dpm; Perkin-Elmer Life Science, USA), 100 μl of the above membrane preparation (protein amount of about 25 μg) were mixed and incubated at 37° C. for 60 minutes, and then the whole was incubated on ice for 10 minutes. An ice-cooled […] (AGP; Sigma) was added in an amount of 200 μg/50 μl, followed by further 5 minutes of incubation. The completion of the incubation was effected by rapid filtration of the mixture using a GF/B filter (Perkin-Elmer Life Science, USA). After the filter was washed with ice-cooled 25 mM Tris-HCl buffer (pH 7.4) seven times, radioactivity of the filter was measured by means of a liquid scintillation counter (2500TR; Packard, USA). With regard to a specific binding, of the total binding amount of [^3H]RTX and membrane fractions of VR1 receptor stably expressing cell, a portion substituted by 1 μM RTX was regarded as a specific binding derived from VR1 receptor. Evaluation of the test compound was conducted as follows. […]

In assay [1] the test system is paw-licking action induced by capsaicin. Kind of assay: Capsaicin test (paw-licking action). The format is in vivo. Conditions: mouse, oral administration 30 mg/kg, 45 minutes before capsaicin; read-out: Inhibition ratio (%). Here is the method:
The test was carried out in accordance with [Neuropharmacol. 31: 1279-1285 (1992)]. When 1.6 μg of capsaicin was administered to the planta of a mouse (ddY, male, 4- to 5-weeks old), a paw-licking action is induced. By measuring a time of expressing paw-licking action during 5 minutes after the administration, an inhibitory effect on pain behavior was evaluated. A test compound was administered intraperitoneally 30 minutes before the capsaicin administration or administered orally 45 minutes before the capsaicin administration. Evaluation of the test compound was conducted by determining each inhibition ratio in a test compound-administered group when the time of expressing paw-licking action in a vehicle-administered group was regarded as 100%.

pIC50: −log10 of the molar value. Where a name gives a salt, the structure may show the parent alone.

T1 sequence (Q8NER1 whole entry): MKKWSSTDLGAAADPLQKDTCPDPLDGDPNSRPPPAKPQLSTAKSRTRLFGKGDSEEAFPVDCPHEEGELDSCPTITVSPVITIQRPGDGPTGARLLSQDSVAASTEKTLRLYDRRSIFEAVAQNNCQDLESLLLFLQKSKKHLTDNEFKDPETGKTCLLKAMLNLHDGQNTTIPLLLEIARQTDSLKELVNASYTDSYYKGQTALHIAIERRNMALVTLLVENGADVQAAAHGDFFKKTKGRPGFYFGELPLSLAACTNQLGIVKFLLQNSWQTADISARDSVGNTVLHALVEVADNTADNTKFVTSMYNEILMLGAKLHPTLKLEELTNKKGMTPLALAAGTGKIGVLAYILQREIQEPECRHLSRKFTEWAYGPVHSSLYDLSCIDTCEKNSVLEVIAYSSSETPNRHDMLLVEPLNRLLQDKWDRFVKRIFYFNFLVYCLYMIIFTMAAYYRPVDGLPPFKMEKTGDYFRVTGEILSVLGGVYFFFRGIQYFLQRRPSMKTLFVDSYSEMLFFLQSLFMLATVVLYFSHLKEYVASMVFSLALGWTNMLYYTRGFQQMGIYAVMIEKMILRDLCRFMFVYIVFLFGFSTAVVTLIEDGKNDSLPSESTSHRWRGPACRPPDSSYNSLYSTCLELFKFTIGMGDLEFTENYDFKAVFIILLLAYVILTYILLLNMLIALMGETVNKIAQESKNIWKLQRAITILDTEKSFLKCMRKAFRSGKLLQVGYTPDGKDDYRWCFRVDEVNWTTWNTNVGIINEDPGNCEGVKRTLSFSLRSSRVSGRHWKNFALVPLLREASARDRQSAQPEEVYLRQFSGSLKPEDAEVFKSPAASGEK

Take `COc1cccc(NC(=O)c2ccc(-c3ccccc3)c(CN3CCCCC3)c2)c1` [Example 1, N-(3-methoxyphenyl)-2-(piperidin-1-ylmethyl)biphenyl-4-carboxamide hydrochloride]: the pIC50 (usually the negative decadic logarithm of the IC50, by convention in mol/L) at human VR1 was no less than 6.00.

For `O=C(Nc1ccc2scnc2c1)c1ccc(-c2ccccc2)c(CN2CCCCC2)c1` [Example 7], on human VR1, the pIC50 was no less than 6.00.

The compound `O=C(Nc1ccc2scnc2c1)c1ccc(-c2ccccc2)c(CN2CCOCC2)c1` [Example 21] showed a pIC50 on human VR1 of no less than 6.00.

In turn, `CC(C)N(Cc1cc(C(=O)Nc2ccc3scnc3c2)ccc1-c1ccccc1)C1CCCCC1` [Example 33] showed a pIC50 at human VR1 of no less than 6.00. Also, in assay [1], the inhibition in vivo at 30 mg/kg was 66%.

Take `O=C1CCc2ccc(NC(=O)c3ccc(-c4ccccc4)c(CN4CCCCC4)c3)cc2N1` [Example 60]: the pIC50 at human VR1 was no less than 6.00.

With `CN(C)c1ccc(NC(=O)c2ccc(-c3ccccc3)c(CN3CCCCC3)c2)cn1` [Example 71], the pIC50 at human VR1 was no less than 6.00.

As for `CN1C(=O)CCc2ccc(NC(=O)c3ccc(-c4ccccc4)c(CN4CCCCC4)c3)cc21` [Example 78], the pIC50 at human VR1 was no less than 6.00. Further, in assay [1], the inhibition in vivo at 30 mg/kg stood at 76%.

As to `CC1Oc2ccc(NC(=O)c3ccc(-c4ccccc4)c(CN4CCCCC4)c3)cc2N(C)C1=O` (stereo not drawn) [Example 85], the pIC50 on human VR1 is no less than 6.00. Further, the inhibition in vivo at 30 mg/kg in assay [1] came out at 86%.

`CC1(C)C(=O)Nc2cc(NC(=O)c3ccc(-c4ccccc4)c(CN4CCCCC4)c3)ccc21` [Example 87] had a pIC50 at human VR1 of no less than 6.00. The inhibition in vivo at 30 mg/kg in assay [1] amounted to 67%.

`O=C(Nc1ccc2scnc2c1)c1ccc(-c2ccccc2)c(CN2CCC(F)CC2)c1` [Example 110] had a pIC50 on human VR1 of no less than 6.00.

Turning to `CC1CCN(C2CCCN(Cc3cc(C(=O)Nc4ccc5c(c4)NC(=O)C(C)O5)ccc3-c3ccccc3)C2)CC1` (stereo not drawn) [Example 122], the pIC50 on human VR1 was no less than 6.00.

For `CCN(Cc1cc(C(=O)Nc2ccc3c(c2)NC(=O)C(C)O3)ccc1-c1ccccc1)CC(C)(C)O` (stereo not drawn) [Example 123], the pIC50 on human VR1 is no less than 6.00. In addition, in assay [1], the inhibition in vivo at 30 mg/kg was determined as 69%.

On human VR1, `Cn1c(=O)ccc2ccc(NC(=O)c3ccc(-c4ccccc4)c(CN4CCCCC4)c3)cc21` [Example 129] had a negative logarithm of the IC50 (pIC50) of no less than 6.00. Also, in assay [1], the inhibition in vivo at 30 mg/kg is 91%.

For the compound `Cc1cc2ccc(NC(=O)c3ccc(-c4ccccc4)c(CN4CCCCC4)c3)cc2[nH]c1=O` [Example 130], the pIC50 at human VR1 is no less than 6.00. In assay [1], the inhibition in vivo at 30 mg/kg is 62%.

The compound `CCN(CC)Cc1cc(C(=O)Nc2cc3c(c(C(F)(F)F)c2)CC(=O)N3)ccc1-c1ccccc1` [Example 143] showed a pIC50 on human VR1 of no less than 6.00.

At human VR1, `CN1C(=O)CCc2ccc(NC(=O)c3ccc(-c4cccs4)c(CN4CCCCC4)c3)cc21` [Example 163] gave a pIC50 of no less than 6.00.

In the case of `CCN(Cc1cc(C(=O)Nc2ccc3c(c2)N(C)C(=O)CC3)ccc1-c1ccccc1)C1CCOCC1` [Example 170], at human VR1, the pIC50 is no less than 6.00. Moreover, the inhibition in vivo at 30 mg/kg in assay [1] was 68%.

Regarding `CCN(Cc1cc(C(=O)Nc2ccc3c(c2)N(C)C(=O)CC3)ccc1-c1ccccc1)C1CCSCC1` [Example 181], on human VR1, the pIC50 was no less than 6.00.

Compound `CC(C)CN(CCN1CCCCC1)Cc1cc(C(=O)Nc2ccc3c(c2)NC(=O)C(C)O3)ccc1-c1ccccc1` (stereo not drawn) [Example 195] showed a pIC50 at human VR1 of no less than 6.00.
